Assay results from ChEMBL document CHEMBL6182894, “Design, synthesis, and biological evaluation of quinolinyl-ureido-phenyl-hydrazide derivatives and quinolinyl-hydrazide derivatives as anticancer agents targeting Nur77-mediated ferroptosis” (Eur J Med Chem, 2025).

Assays:
MCF7 [1] = test: Antiproliferative activity against human MCF7 cells assessed as inhibition of cell growth at 50 uM by MTT assay relative to control; assay type: functional
HCT-116 = test: Antiproliferative activity against human HCT-116 cells assessed as inhibition of cell growth by MTT assay
HepG2 = test: Antiproliferative activity against human HepG2 cells assessed as inhibition of cell growth by MTT assay
[2] = Cytotoxicity in HaCaT cells assessed as inhibition of cell growth by MTT assay; assay type: toxicity, cell-based; conditions: human
[3] = Cytotoxicity in human MCF-10A cells assessed as inhibition of cell growth by MTT assay; assay type: toxicity, cell-based
MCF7 [4] = test: cells; conditions: Homo sapiens, MCF7, 24 h
Description: Antiproliferative activity against human MCF7 cells assessed as inhibition of cell growth incubated for 24 hrs by MTT assay

MDA-MB-231 = test: cells; conditions: Homo sapiens, MDA-MB-231, 24 h
Description: Antiproliferative activity against human MDA-MB-231 cells assessed as inhibition of cell growth incubated for 24 hrs by MTT assay

[5] = target: Nuclear receptor subfamily 4immunitygroup A member 1 (Homo sapiens, UniProt P22736); test: Binding affinity to Nur77 LB domain (unknown origin) assessed as dissociation constant up to 100 uM by fluorescence titration assay
T47D = test: cells; conditions: Homo sapiens, 24 h
Description: Antiproliferative activity against human T47D cells assessed as inhibition of cell growth incubated for 24 hrs by MTT assay

Sequence of Nuclear receptor subfamily 4immunitygroup A member 1 (P22736 whole entry, the tested form may be a part): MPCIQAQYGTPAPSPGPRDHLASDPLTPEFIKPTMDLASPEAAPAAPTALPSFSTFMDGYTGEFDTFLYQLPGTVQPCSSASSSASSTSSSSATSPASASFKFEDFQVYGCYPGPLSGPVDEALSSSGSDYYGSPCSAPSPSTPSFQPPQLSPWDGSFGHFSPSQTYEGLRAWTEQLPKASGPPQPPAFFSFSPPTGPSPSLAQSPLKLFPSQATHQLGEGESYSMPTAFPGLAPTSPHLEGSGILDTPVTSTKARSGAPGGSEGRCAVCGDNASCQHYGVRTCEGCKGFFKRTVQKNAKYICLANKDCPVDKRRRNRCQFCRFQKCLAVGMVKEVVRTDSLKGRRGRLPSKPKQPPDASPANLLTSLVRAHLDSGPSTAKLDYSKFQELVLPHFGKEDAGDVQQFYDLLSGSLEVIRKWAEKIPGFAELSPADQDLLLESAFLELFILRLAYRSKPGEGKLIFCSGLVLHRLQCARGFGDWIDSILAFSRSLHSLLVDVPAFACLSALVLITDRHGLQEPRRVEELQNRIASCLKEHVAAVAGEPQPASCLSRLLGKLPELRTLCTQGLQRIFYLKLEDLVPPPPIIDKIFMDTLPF

Row | Compound | inhibition at 50 µM (MCF7 [1]) [%] | other results
1 | O=C(Nc1ccc(C(=O)N/N=C/c2cccc(Cl)c2)cc1)Nc1cccc2ncccc12 | 76.2 | IC50 (HCT-116): 10.7 µM; IC50 (HepG2): 15.6 µM; IC50 [2]: > 50 µM; IC50 [3]: > 50 µM; IC50 (MCF7 [4]): 11.4 µM
2 | O=C(Nc1ccc(C(=O)N/N=C/c2ccco2)cc1)Nc1ccc2ncccc2c1 | 56.2 | –
3 | COc1ccc(/C=N/NC(=O)c2ccc(NC(=O)Nc3ccc4ncccc4c3)cc2)cc1 | 37.7 | –
4 | CCOc1ccccc1-n1c(C(C)N2CCN(C(=O)COc3ccc(Cl)cc3)CC2)nc2ccccc2c1=O (stereo not given) [ERASTIN] | – | IC50 (HCT-116): > 30 µM; IC50 (HepG2): > 30 µM; IC50 (MCF7 [4]): 20.2 µM
5 | O=C(N/N=C/c1ccnc2ccccc12)c1ccc2ncccc2c1 | 55.3 | –
6 | Cc1cccc(/C=N/NC(=O)c2ccc3ncccc3c2)c1 | 50.1 | –
7 | COc1ccc(/C=N/NC(=O)c2ccc(NC(=O)Nc3ccc4ncccc4c3)cc2)cc1OC | 1.26 | –
8 | CCC/C=N/NC(=O)c1cccc2ncccc12 | 79.2 | IC50 (HCT-116): 2.19 µM; IC50 (HepG2): 2.75 µM; IC50 [2]: 45.7 µM; IC50 [3]: 39.5 µM; IC50 (MCF7 [4]): 6.83 µM
9 | O=C(Nc1ccc(C(=O)N/N=C/c2cc(Cl)nc3ccccc23)cc1)Nc1ccc2ncccc2c1 | 65.4 | –
10 | O=C(N/N=C/c1cccs1)c1ccc2ncccc2c1 | 64.9 | –
11 | CC/C(=C(\c1ccccc1)c1ccc(OCCN(C)C)cc1)c1ccccc1 [TAMOXIFEN] | – | IC50 (MCF7 [4]): 7.68 µM; IC50 (MDA-MB-231): 20.8 µM
12 | O=C(O)c1ccc(/C=N/NC(=O)c2ccc3ncccc3c2)cc1 | 48 | –
13 | COc1ccc(/C=N/NC(=O)c2ccc(NC(=O)Nc3ccc4ncccc4c3)cc2)c(O)c1 | 1.01 | –
14 | O=C(Nc1ccc(C(=O)N/N=C/c2ccnc3ccccc23)cc1)Nc1ccc2ncccc2c1 | 1.11 | –
15 | Cc1cc(C)cc(/C=N/NC(=O)c2ccc3ncccc3c2)c1 | 55.2 | –
16 | Cc1cccc(/C=N/NC(=O)c2ccc(NC(=O)Nc3ccc4ncccc4c3)cc2)c1 | 68.2 | –
17 | Cc1ccc(F)cc1/C=N/NC(=O)c1ccc2ncccc2c1 | 73.5 | –
18 | O=C(N/N=C/c1ccco1)c1cccc2ncccc12 | 50.9 | –
19 | O=C(Nc1ccc(C(=O)N/N=C/c2cccs2)cc1)Nc1ccc2ncccc2c1 | 15.1 | –

Row | Compound | inhibition at 50 µM (MCF7 [1]) [%] | other results
20 | O=C(Nc1ccc(C(=O)N/N=C/c2ccc(F)cc2F)cc1)Nc1cccc2ncccc12 | 73.3 | –
21 | O=C(N/N=C/c1ccccc1)c1ccc2ncccc2c1 | 64.9 | –
22 | O=C(N/N=C/c1cccc(Cl)c1)c1cccc2ncccc12 | 56.9 | –
23 | O=C(Nc1ccc(C(=O)N/N=C/c2ccc(F)cc2F)cc1)Nc1ccc2ncccc2c1 | 23.2 | –
24 | O=C(Nc1ccc(C(=O)N/N=C/c2ccc(Cl)cc2Cl)cc1)Nc1cccc2ncccc12 | 74.6 | –
25 | O=C(N/N=C/c1ccccc1)c1cccc2ncccc12 | 69.3 | –
26 | CC(C)c1ccc(/C=N/NC(=O)c2ccc(NC(=O)Nc3cccc4ncccc34)cc2)cc1 | 65.9 | –
27 | Cc1ccc(/C=N/NC(=O)c2ccc3ncccc3c2)cc1 | 76.8 | IC50 (HCT-116): 25.3 µM; IC50 (HepG2): 28.1 µM; IC50 [2]: 39.6 µM; IC50 [3]: 40.6 µM; IC50 (MCF7 [4]): 22.3 µM
28 | O=C(N/N=C/c1ccc(F)cc1F)c1ccc2ncccc2c1 | 70.8 | –
29 | COc1cccc(/C=N/NC(=O)c2ccc(NC(=O)Nc3cccc4ncccc34)cc2)c1 | 59 | –
30 | O=C(Nc1ccc(C(=O)N/N=C/c2ccc(Cl)cc2)cc1)Nc1ccc2ncccc2c1 | 66.4 | –
31 | COc1cc(/C=N/NC(=O)c2ccc(NC(=O)Nc3ccc4ncccc4c3)cc2)cc(OC)c1 | 56.4 | –
32 | O=C(Nc1ccc(C(=O)N/N=C/c2ccc(Cl)cc2Cl)cc1)Nc1ccc2ncccc2c1 | 70.2 | –
33 | COc1ccc(/C=N/NC(=O)c2ccc3ncccc3c2)c(O)c1 | 71.2 | –
34 | Cc1ccc(/C=N/NC(=O)c2cccc3ncccc23)cc1 | 60.5 | –
35 | Cc1cc(C)cc(/C=N/NC(=O)c2cccc3ncccc23)c1 | 68.5 | –
36 | O=C(N/N=C/c1cc(Cl)nc2ccccc12)c1ccc2ncccc2c1 | 44.1 | –
37 | O=C(N/N=C/c1ccco1)c1ccc2ncccc2c1 | 41.8 | –
38 | Cc1cccc(/C=N/NC(=O)c2ccc(NC(=O)Nc3cccc4ncccc34)cc2)c1 | 68.6 | –

Row | Compound | inhibition at 50 µM (MCF7 [1]) [%] | other results
39 | O=C(N/N=C/c1cccs1)c1cccc2ncccc12 | 45.7 | –
40 | O=C(Nc1ccc(C(=O)N/N=C/c2ccc(Cl)cc2)cc1)Nc1cccc2ncccc12 | 53.4 | –
41 | COc1ccc(/C=N/NC(=O)c2cccc3ncccc23)cc1 | 67.9 | –
42 | Cc1cc(C)cc(/C=N/NC(=O)c2ccc(NC(=O)Nc3ccc4ncccc4c3)cc2)c1 | 19 | –
43 | O=C(N/N=C/c1ccc(F)cc1)c1ccc2ncccc2c1 | 60.1 | –
44 | O=C(N/N=C/c1ccc([N+](=O)[O-])cc1)c1ccc2ncccc2c1 | 63.2 | –
45 | CCC/C=N/NC(=O)c1ccc(NC(=O)Nc2ccc3ncccc3c2)cc1 | 46.6 | –
46 | Cc1ccccc1/C=N/NC(=O)c1cccc2ncccc12 | 65.3 | –
47 | COc1ccc(/C=N/NC(=O)c2ccc(NC(=O)Nc3cccc4ncccc34)cc2)cc1 | 72.3 | –
48 | COc1cccc(/C=N/NC(=O)c2ccc(NC(=O)Nc3ccc4ncccc4c3)cc2)c1 | 1.99 | –
49 | O=C(N/N=C/c1cc(Cl)ccc1Cl)c1ccc2ncccc2c1 | 64.7 | –
50 | CCCCCCCC(=O)c1c(O)cc(O)cc1CC(=O)OCC [CYTOSPORONE B] | – | Kd [5]: 15.3 µM
51 | Cc1ccc(F)cc1/C=N/NC(=O)c1ccc(NC(=O)Nc2cccc3ncccc23)cc1 | 68.3 | –
52 | O=C(Nc1ccc(C(=O)N/N=C/c2cc(Cl)ccc2Cl)cc1)Nc1ccc2ncccc2c1 | 75.7 | IC50 (HCT-116): 8.24 µM; IC50 (HepG2): 9.25 µM; IC50 [2]: 40.1 µM; IC50 [3]: > 50 µM; IC50 (MCF7 [4]): 4.77 µM; IC50 (T47D): 8.71 µM
53 | O=C(N/N=C/c1ccc(Cl)cc1)c1ccc2ncccc2c1 | 79 | IC50 (HCT-116): 22.9 µM; IC50 (HepG2): 13.9 µM; IC50 [2]: > 50 µM; IC50 [3]: > 50 µM; IC50 (MCF7 [4]): 17.4 µM
54 | O=C(Nc1ccc(C(=O)N/N=C/c2c[nH]c3ccccc23)cc1)Nc1cccc2ncccc12 | 30.2 | –
55 | CCC/C=N/NC(=O)c1ccc2ncccc2c1 | 65.1 | –
56 | COc1ccc(/C=N/NC(=O)c2ccc3ncccc3c2)cc1 | 66.2 | –
